Test results from PubChem BioAssay AID256 (DTP/NCI, 2004).
“And” between values parts separate entries of the source, which are not always exact repeats. Equal entries are not always repeated. Toxic doses and inconclusive results are not listed.

System: CD2F1 mice, L1210 leukemia ip, survival T/C
Assay: NCI In Vivo Anticancer Drug Screen. Data for tumor model L1210 Leukemia (intraperitoneal) in CD2F1 (CDF1) mice
Conditions: higher = longer survival
Method in brief: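 Activity against a transplanted murine tumor was judged by comparing the compound group with a vehicle group. The outcome in the treated animals was divided by that in the controls.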

[1] = endpoint: mean survival time, dose: 25.0 mg/kg/injection, schedule: Q04DX002 (ip), vehicle: saline with Tween-80
[2] = endpoint: mean survival time, dose: 100.0 mg/kg/injection, schedule: Q01DX001 (ip), vehicle: saline
[3] = endpoint: mean survival time, dose: 200.0 mg/kg/injection, schedule: Q01DX001 (ip), vehicle: saline
[4] = endpoint: mean survival time, dose: 100.0 mg/kg/injection, schedule: Q01DX009 (ip), vehicle: saline with Tween-80
[5] = endpoint: mean survival time, dose: 200.0 mg/kg/injection, schedule: Q01DX009 (ip), vehicle: saline with Tween-80
[6] = endpoint: mean survival time, dose: 400.0 mg/kg/injection, schedule: Q01DX009 (ip), vehicle: saline with Tween-80
[7] = endpoint: mean survival time, dose: 100.0 mg/kg/injection, schedule: Q04DX003 (ip), vehicle: saline
[8] = endpoint: mean survival time, dose: 200.0 mg/kg/injection, schedule: Q04DX003 (ip), vehicle: saline
[9] = endpoint: mean survival time, dose: 400.0 mg/kg/injection, schedule: Q04DX003 (ip), vehicle: saline
[10] = endpoint: mean survival time, dose: 50.0 mg/kg/injection, schedule: Q01DX009 (ip), vehicle: saline with Tween-80
[11] = endpoint: mean survival time, dose: 100.0 mg/kg/injection, schedule: Q04DX003 (ip), vehicle: saline with Tween-80
[12] = endpoint: mean survival time, dose: 200.0 mg/kg/injection, schedule: Q04DX003 (ip), vehicle: saline with Tween-80
[13] = endpoint: mean survival time, dose: 400.0 mg/kg/injection, schedule: Q04DX003 (ip), vehicle: saline with Tween-80

## O=C(c1ccc(-c2ccccc2)cc1)C1C(c2ccccc2)N1C1CCCCC1 (stereo unspecified)
endpoint: mean survival time, dose: 12.5 mg/kg/injection, schedule: Q01DX009 (ip), vehicle: other
  T/C: 102 % of control and 96 % of control
endpoint: mean survival time, dose: 25.0 mg/kg/injection, schedule: Q01DX001 (ip), vehicle: water
  T/C: 96 % of control and 98 % of control
endpoint: mean survival time, dose: 25.0 mg/kg/injection, schedule: Q01DX009 (ip), vehicle: other
  T/C: 96 % of control and 97 % of control
endpoint: mean survival time, dose: 50.0 mg/kg/injection, schedule: Q01DX001 (ip), vehicle: water
  T/C: 88 % of control and 90 % of control
endpoint: mean survival time, dose: 50.0 mg/kg/injection, schedule: Q01DX009 (ip), vehicle: other
  T/C: 102 % of control and 88 % of control
endpoint: mean survival time, dose: 100.0 mg/kg/injection, schedule: Q01DX001 (ip), vehicle: water
  T/C: 95 % of control and 101 % of control
endpoint: mean survival time, dose: 100.0 mg/kg/injection, schedule: Q01DX009 (ip), vehicle: other
  T/C: 86 % of control and 97 % of control
endpoint: mean survival time, dose: 200.0 mg/kg/injection, schedule: Q01DX001 (ip), vehicle: water
  T/C: 90 % of control and 92 % of control
endpoint: mean survival time, dose: 200.0 mg/kg/injection, schedule: Q01DX009 (ip), vehicle: other
  T/C: 94 % of control
endpoint: mean survival time, dose: 400.0 mg/kg/injection, schedule: Q01DX001 (ip), vehicle: water
  T/C: 92 % of control

## OCCNCc1ccc(OCc2ccccc2)c(OCc2ccccc2)c1
endpoint: median survival time, dose: 50.0 mg/kg/injection, schedule: Q04DX003 (ip), vehicle: saline with Tween-80
  T/C: 90 % of control
endpoint: median survival time, dose: 100.0 mg/kg/injection, schedule: Q04DX003 (ip), vehicle: saline with Tween-80
  T/C: 90 % of control

## CCCCC(CC)COc1ccc(N=C(N)N=C(N)N)cc1 (stereo unspecified)
[1]
  T/C: 98 % of control
endpoint: mean survival time, dose: 50.0 mg/kg/injection, schedule: Q04DX002 (ip), vehicle: saline with Tween-80
  T/C: 102 % of control

## N#CCCC(C#N)(c1cccnc1)N1CCOCC1 (stereo unspecified)
endpoint: mean survival time, dose: 12.5 mg/kg/injection, schedule: Q01DX009 (ip), vehicle: Klucel (hydroxypropylcellulose) (HPC)
  T/C: 93 % of control
endpoint: mean survival time, dose: 25.0 mg/kg/injection, schedule: Q01DX009 (ip), vehicle: Klucel (hydroxypropylcellulose) (HPC)
  T/C: 97 % of control
[1]
  T/C: 109 % of control

## COc1c2occc2c(OC)c2c(=O)cc(/C=C/c3ccccn3)oc12
[2]
  T/C: 98 % of control
[3]
  T/C: 101 % of control
endpoint: mean survival time, dose: 400.0 mg/kg/injection, schedule: Q01DX001 (ip), vehicle: saline
  T/C: 98 % of control

## CCCCCCCCCCCCCC(CCCCCCCC)CCCCCCCC
endpoint: mean survival time, dose: 100.0 mg/kg/injection, schedule: Q01DX001 (ip), vehicle: saline sonified
  T/C: 111 % of control
endpoint: mean survival time, dose: 200.0 mg/kg/injection, schedule: Q01DX001 (ip), vehicle: saline sonified
  T/C: 104 % of control
endpoint: mean survival time, dose: 400.0 mg/kg/injection, schedule: Q01DX001 (ip), vehicle: saline sonified
  T/C: 101 % of control

## O=S(=O)(O)c1cccc2cnccc12
[4]
  T/C: 98 % of control
endpoint: mean survival time, dose: 100.0 mg/kg/injection, schedule: Q04DX003 (ip), vehicle: saline sonified
  T/C: 93 % of control
[5]
  T/C: 96 % of control
endpoint: mean survival time, dose: 200.0 mg/kg/injection, schedule: Q04DX003 (ip), vehicle: saline sonified
  T/C: 98 % of control
[6]
  T/C: 93 % of control
endpoint: mean survival time, dose: 400.0 mg/kg/injection, schedule: Q04DX003 (ip), vehicle: saline sonified
  T/C: 98 % of control

## Cn1c2cc(Cl)c(Cl)cc2nc2cc3c(cc21)c(Cl)c(=O)c1cc2cc(Cl)c(Cl)cc2cc13
[7]
  T/C: 95 % of control
[8]
  T/C: 95 % of control
[9]
  T/C: 100 % of control

## O=C(O)c1cc(C(=O)O)c(C(=O)O)cc1C(=O)O.[NH2-].[NH2-].[NH2-].[NH2-].[Pt+2].[Pt+2]
endpoint: mean survival time, dose: 0.2 mg/kg/injection, schedule: Q04DX003 (ip), vehicle: water
  T/C: 124 % of control and 106 % of control
endpoint: mean survival time, dose: 0.39 mg/kg/injection, schedule: Q04DX003 (ip), vehicle: water
  T/C: 115 % of control and 119 % of control
endpoint: mean survival time, dose: 2.0 mg/kg/injection, schedule: Q04DX003 (ip), vehicle: water
  T/C: 98 % of control
endpoint: mean survival time, dose: 4.0 mg/kg/injection, schedule: Q04DX003 (ip), vehicle: water
  T/C: 97 % of control
endpoint: mean survival time, dose: 8.0 mg/kg/injection, schedule: Q04DX003 (ip), vehicle: water
  T/C: 106 % of control
endpoint: mean survival time, dose: 16.0 mg/kg/injection, schedule: Q04DX003 (ip), vehicle: water
  T/C: 110 % of control
endpoint: median survival time, dose: 0.12 mg/kg/injection, schedule: Q01DX009 (ip), vehicle: water
  T/C: 97 % of control
endpoint: median survival time, dose: 0.25 mg/kg/injection, schedule: Q01DX009 (ip), vehicle: water
  T/C: 97 % of control
endpoint: median survival time, dose: 0.5 mg/kg/injection, schedule: Q01DX009 (ip), vehicle: water
  T/C: 97 % of control
endpoint: median survival time, dose: 1.0 mg/kg/injection, schedule: Q01DX009 (ip), vehicle: water
  T/C: 92 % of control and 100 % of control and 112 % of control
endpoint: median survival time, dose: 2.0 mg/kg/injection, schedule: Q01DX009 (ip), vehicle: water
  T/C: 100 % of control and 101 % of control and 109 % of control
endpoint: median survival time, dose: 4.0 mg/kg/injection, schedule: Q01DX009 (ip), vehicle: water
  T/C: 124 % of control and 105 % of control
endpoint: median survival time, dose: 8.0 mg/kg/injection, schedule: Q01DX009 (ip), vehicle: water
  T/C: 124 % of control and 111 % of control (2×)
endpoint: median survival time, dose: 16.0 mg/kg/injection, schedule: Q01DX009 (ip), vehicle: water
  T/C: 96 % of control
endpoint: median survival time, dose: 32.0 mg/kg/injection, schedule: Q01DX009 (ip), vehicle: water
  T/C: 90 % of control

## O=C(CNC(=O)Nc1cccc([N+](=O)[O-])c1)N/N=C/c1c(O)ccc2ccccc12
[10]
  T/C: 88 % of control
[4]
  T/C: 92 % of control
[5]
  T/C: 95 % of control

## CCCCCCSC(=O)Nc1ccc(C)c(NC(=O)SCCCCCC)c1
[10]
  T/C: 95 % of control
[4]
  T/C: 93 % of control
[5]
  T/C: 93 % of control

## CC(=O)NC1CCCCC1
[4]
  T/C: 104 % of control
[5]
  T/C: 102 % of control

## NC(CO)CO
[7]
  T/C: 98 % of control
[8]
  T/C: 95 % of control
[9]
  T/C: 98 % of control

## N#CC(OC(=O)c1ccccc1)c1cccc([N+](=O)[O-])c1 (stereo unspecified)
[4]
  T/C: 98 % of control
[11]
  T/C: 101 % of control
[5]
  T/C: 96 % of control
[12]
  T/C: 96 % of control
[13]
  T/C: 100 % of control

## S=C1SCCN1Cc1ccccc1
[4]
  T/C: 104 % of control
[11]
  T/C: 106 % of control
[5]
  T/C: 101 % of control
[12]
  T/C: 101 % of control
[6]
  T/C: 104 % of control
[13]
  T/C: 101 % of control

## CCOC(CNCc1cccc(OC)c1)OCC
[2]
  T/C: 100 % of control
[3]
  T/C: 100 % of control

## NC(=S)N/N=C/c1ncccc1O
endpoint: mean survival time, dose: 3.13 mg/kg/injection, schedule: Q03HX024 (ip), vehicle: saline
  T/C: 117 % of control
endpoint: mean survival time, dose: 50.0 mg/kg/injection, schedule: Q03HX024 (ip), vehicle: saline
  T/C: 102 % of control
endpoint: median survival time, dose: 21.8 mg/kg/injection, schedule: Q03HX008 (ip), vehicle: suspension in saline
  T/C: 156 % of control
endpoint: median survival time, dose: 32.5 mg/kg/injection, schedule: Q03HX008 (ip), vehicle: suspension in saline
  T/C: 164 % of control
endpoint: median survival time, dose: 45.0 mg/kg/injection, schedule: Q04DX003 (ip), vehicle: suspension in saline
  T/C: 121 % of control
endpoint: median survival time, dose: 48.5 mg/kg/injection, schedule: Q03HX008 (ip), vehicle: suspension in saline
  T/C: 174 % of control
endpoint: median survival time, dose: 50.0 mg/kg/injection, schedule: Q01DX005 (ip), vehicle: saline
  T/C: 156 % of control
endpoint: median survival time, dose: 72.4 mg/kg/injection, schedule: Q03HX008 (ip), vehicle: suspension in saline
  T/C: 109 % of control
endpoint: median survival time, dose: 90.0 mg/kg/injection, schedule: Q04DX003 (ip), vehicle: suspension in saline
  T/C: 122 % of control
endpoint: median survival time, dose: 100.0 mg/kg/injection, schedule: Q01DX005 (ip), vehicle: suspension in saline
  T/C: 150 % of control
endpoint: median survival time, dose: 108.0 mg/kg/injection, schedule: Q04DX003 (ip), vehicle: suspension in saline
  T/C: 152 % of control
endpoint: median survival time, dose: 180.0 mg/kg/injection, schedule: Q03HX024 (ip), vehicle: saline
  T/C: 86 % of control
endpoint: median survival time, dose: 200.0 mg/kg/injection, schedule: Q01DX005 (ip), vehicle: suspension in saline
  T/C: 117 % of control
endpoint: median survival time, dose: 241.0 mg/kg/injection, schedule: Q04DX003 (ip), vehicle: suspension in saline
  T/C: 151 % of control
endpoint: median survival time, dose: 360.0 mg/kg/injection, schedule: Q04DX003 (ip), vehicle: suspension in saline
  T/C: 161 % of control
endpoint: median survival time, dose: 537.0 mg/kg/injection, schedule: Q04DX003 (ip), vehicle: suspension in saline
  T/C: 109 % of control
endpoint: median survival time, dose: 720.0 mg/kg/injection, schedule: Q04DX003 (ip), vehicle: suspension in saline
  T/C: 119 % of control

## C[n+]1ccccc1/C=N/O
endpoint: mean survival time, dose: 25.0 mg/kg/injection, schedule: Q04DX003 (ip), vehicle: saline
  T/C: 96 % of control
endpoint: mean survival time, dose: 50.0 mg/kg/injection, schedule: Q04DX003 (ip), vehicle: saline
  T/C: 94 % of control
[7]
  T/C: 93 % of control and 97 % of control
